# Reference: patent US20090143279A1 (priority 2007, published 2009)
# Where a name gives a salt, the structure may show the parent alone. Read-outs that look alike come from different tables or passages of the source.
# Columns and labels:
# [1] = system: cellular dehydrogenase activity
# [2] = system: nuOXPHOS transcripts; assay type: cell-based, mouse
# [3] = system: OXPHOS gene expression; assay type: cell-based, mouse
# [4] = system: C2C12 myotubes
# [5] = system: mitochondrial membrane potential; assay type: cell-based, mouse
# [6] = system: mtOXPHOS transcripts; assay type: cell-based, mouse
# [7] = system: cytochrome c; assay type: cell-based, mouse
# [8] = system: reactive oxygen species; assay type: cell-based, mouse
# [9] = 20 μM, composite Z-score vs DMSO
# [10] = Table 4, C2C12 myotubes, 48 h, composite Z-score
# [11] = composite Z-score vs DMSO, Conc 20 μM
# [12] = Conc 20 μM, normalized score vs mock-treated (DMSO) wells
# [13] = 20.6 μM, composite Z-score vs DMSO
Structure (SMILES),"MTT [1, 9]","nucOX [2, 9]","GE-HTS [3, 9]","Viability [4, 9]","ΔΨm [5, 9]","mitoOX [6, 9]","cyt c [7, 9]","ROS [8, 9]","MTT [1, 11]","nucOX [2, 11]","GE-HTS [3, 11]","Viability [4, 11]","ΔΨm [5, 11]","mitoOX [6, 11]","cyt c [7, 11]","ROS [8, 11]",also measured
Oc1ncnc2[nH]ncc12 [allopurinol],−1.611,−0.849,−0.869,0.376,−0.204,−0.798,−0.105,1.448,–,–,–,–,–,–,–,–,–
N#CC(=Cc1cccc(O)c1)C(=O)O [alpha-cyano-3-hydroxycinnamic acid],−0.323,−0.903,−0.747,−0.861,−0.165,−0.285,0.349,0.452,–,–,–,–,–,–,–,–,–
CC(=O)Oc1c(C)c(C)c2c(c1C)CCC(C)(CCCC(C)CCCC(C)CCCC(C)C)O2 (stereo not drawn) [alpha-tochopheryl acetate],−1.398,0.339,0.212,−0.957,−0.734,−0.094,0.261,0.364,–,–,–,–,–,–,–,–,–
"COc1cc2c(cc1OC)[C@@H]1C(=O)c3c(O)cc4c(c3O[C@@H]1CO2)C=CC(C)(C)O4 [alpha-toxicarol, reference compound]",–,–,–,–,–,–,–,–,−1.982,0.124,−0.046,0.304,0.820,−0.345,−2.637,0.101,"MTT [1, 10]: −1.982; Viability [4, 10]: 0.304; ΔΨm ([5]; Table 4, C2C12 myotubes, 48 h, JC-1, composite Z-score): 0.820; ROS [8, 10]: 0.101"
COc1cc(OC)c2c(c1)OC(c1ccccc1)CC2=O (stereo not drawn) [alpinetin methyl ether],–,–,–,–,–,–,–,–,–,–,–,–,–,–,–,–,"MTT (composite Z-score) [1, 12]: −0.694; nucOX (composite Z-score) [2, 12]: −0.437; GE-HTS (composite Z-score) [3, 12]: −0.565; Viability (composite Z-score) [4, 12]: 0.220; ΔΨm (composite Z-score) [5, 12]: −0.286; mitoOX (composite Z-score) [6, 12]: −0.717; cyt c (composite Z-score) [7, 12]: −0.145; ROS (composite Z-score) [8, 12]: 0.827"
CN(C)c1nc(N(C)C)nc(N(C)C)n1 [altretamine],−1.416,0.488,0.379,−0.315,−0.322,0.069,−0.631,0.103,–,–,–,–,–,–,–,–,MTT [1]: −0.442; nucOX [2]: 0.750; GE-HTS [3]: 0.884; Viability [4]: −0.533; ΔΨm [5]: −0.440; mitoOX [6]: 0.972; cyt c [7]: 0.040; ROS [8]: 0.462
CCN(CCCc1ccccc1)CCCc1ccccc1 [alverine citrate],–,–,–,–,–,–,–,–,−0.018,−0.098,−0.238,0.885,0.433,−0.442,−0.433,1.116,–
NCC[C@H](O)C(=O)N[C@@H]1C[C@H](N)[C@@H](O[C@H]2O[C@H](CN)[C@@H](O)[C@H](O)[C@H]2O)[C@H](O)[C@H]1O[C@H]1O[C@H](CO)[C@@H](O)[C@H](N)[C@H]1O [amikacin],–,–,–,–,–,–,–,–,−1.688,0.268,0.332,0.034,−0.116,0.338,−0.090,0.301,–
Nc1ccc(C(=O)NCC(=O)O)cc1 [aminohippuric acid],−0.983,0.160,0.220,0.597,−0.606,0.304,0.243,−0.310,–,–,–,–,–,–,–,–,"MTT [1, 13]: −0.126; nucOX [2, 13]: 0.976; GE-HTS [3, 13]: 0.568; Viability [4, 13]: −0.266; ΔΨm [5, 13]: −0.343; mitoOX [6, 13]: −0.395; cyt c [7, 13]: 0.320; ROS [8, 13]: 0.426"
Cc1ccc(/N=C/N(C)/C=N/c2ccc(C)cc2C)c(C)c1 [amitraz],–,–,–,–,–,–,–,–,−1.572,−0.299,−0.526,−1.025,−0.741,−0.814,0.292,0.867,–
CCN(CC)Cc1cc(Nc2ccnc3cc(Cl)ccc23)ccc1O [amodiaquine],−1.008,0.317,0.398,−0.547,−1.178,0.481,−0.008,0.877,–,–,–,–,–,–,–,–,–
